Results published in patent US20110160399A1, “HISTONE MODIFICATION INHIBITOR SPECIFIC TO TARGET GENE” (NIHON UNIVERSITY, priority 2008, published 2011).

Experiments:
[1] = system: p16 gene expression (p16 RNA); assay: Real-time RT-PCR of p16 gene expression in HeLa cells; format: cell-based, human; details: 48 hours, even at 10 nM, GAPDH internal standard, FIG. 6
Procedure: To verify the effect on p16 gene expression, real-time RT-PCR was performed. HeLa cells seeded at 1.5×10^4 cells per well in 24-well plates were cultured for 48 hours in the presence of various concentrations of the polyamides, and RNA was then collected by ISOGEN (Nippon Gene Co., Ltd., Tokyo, Japan). The procedures used followed the manufacturer's instructions. The isolated total RNA was measured for its concentration with Nanodrop (Nanoprop, USA) and used for cDNA synthesis with a Primescript RT reagent kit (TAKARA BIO, Shiga, Japan). The prepared cDNA was confirmed for the expression level of p16 RNA in a Thermal Cycler Dice Real-time System TP-800 (TAKARA BIO, Shiga, Japan) with SYBR premix EX Tag (TAKARA BIO, Shiga, Japan). In this case, the following primers were used in PCR reaction for p16 amplification.
Likewise, for amplification of human endogenous glyceraldehyde-3-phosphate dehydrogenase (GAPDH) used as an internal standard, the following primers were used in PCR reaction.

[2] = system: histone deacetylase (HDAC); assay: HDAC activity assay (HDAC Fluorimetric Assay/Drug Discovery Kit); format: biochemical, human; details: HDAC-containing HeLa cell nuclear fraction, 37°C for 1 hour, various concentrations; FIG. 2
Procedure: To verify whether the activity of histone deacetylase (HDAC) was inhibited by compounds composed of the synthesized SAHA derivatives and polyamides attached to each other, an HDAC Fluorimetric Assay/Drug Discovery Kit (BIOMOL international) was used in the experiment. Although details followed the instructions of the kit manufacturer, an HDAC-containing HeLa cell (human uterine cervical cancer cell line) nuclear fraction was added to an acetylation substrate and incubated at 37° C. for 1 hour in the presence of various concentrations of the synthesized compounds or trichostatin A (hereinafter referred to as TSA) used as a positive control, followed by addition of the developer included in the kit to stop the HDAC-catalyzed reaction. Then, the samples were transferred to a 96-well assay plate and measured with ARVO EX (Perkin Elmer) for emission at 460 nm from the reaction product upon excitation at 360 nm.

[3] = system: acetylation of histone H3 lysine 9 in the p16 genomic region; assay: Genomic region-specific acetylation analysis (ChIP, anti-histone H3K9 acetyl antibody), p16 genomic region; format: cell-based, human; details: HeLa cells, 150 nM, 7 days; FIG. 10
Procedure: In a 10% fetal bovine serum-containing DMEM medium prepared to contain the synthesized compound (SAHA+p16 PIP or SAHA+non-targeting PIP) or SAHA at a final concentration of 150 nM, HeLa cells were cultured at 37° C. in the presence of 5% CO2 for 7 days. After culture, 5×10^6 to 1×10^7 confluent cells were harvested in 100 mm diameter cell culture dishes (Corning 430167) and then subjected to chromatin immunoprecipitation assay with a MILIPORE 17-295 Chromatin Immunoprecipitation (ChIP) assay kit.
The detailed procedures used are as follows. To the harvested cells cultured for 7 days, formalin was added at a final concentration of 1% and incubated at 37° C. for 10 minutes to fix the cells, whereby proteins and DNAs were crosslinked within the cells. Then, glycine was added at a final concentration of 0.25 M and the supernatant was removed, followed by washing the cell layer. Then, the cell layer was treated with 220 μl lysis buffer and the cell lysate was collected with a scraper. […] Real-time RT-PCR.” More specifically, the purified DNA was quantitatively analyzed with SYBR premix EX Taq (TAKARA BIO, Shiga, Japan) in a Thermal Cycler Dice Real-time System TP-800 (TAKARA BIO, Shiga, Japan). […]

CN(C)CCCNC(=O)CCNC(=O)c1cc(NC(=O)c2nc(NC(=O)c3nc(NC(=O)CCNC(=O)c4cc(NC(=O)c5nc(NC(=O)CCCNC(=O)c6cc(NC(=O)c7nc(NC(=O)CCNC(=O)c8cc(NC(=O)c9cc(NC(=O)c%10nc(NC(=O)CCNC(=O)CCNC(=O)c%11ccc(NC(=O)CCCCCCC(=O)NO)cc%11)cn%10C)cn9C)cn8C)cn7C)cn6C)cn5C)cn4C)cn3C)cn2C)cn1C [SAHA+p16 PIP, SAHA-ββImPyPyβImPyγImPyβImImPyβDp]
expression level of p16 at the transcription level [1]: significant increase | anti-HDAC activity [2]: confirmed to have anti-HDAC activity | acetylation of histone H3 lysine 9 in the p16 genomic region [3]: enhanced acetylation | enhancement of histone H3 lysine 9 acetylation in the p16 genomic region compared to SAHA alone or SAHA+non-targeting PIP [3]: about 2 fold
